# Earlier results as cited in patent US20230201171A1, “COMPOSITIONS AND METHODS FOR PREVENTING POST-ERCP PANCREATITIS” (THE BOARD OF TRUSTEES OF THE LELAND STANFORD JUNIOR …, priority 2020, published 2023).
# System: post-ERCP pancreatitis (PEP)
# Settings: rectal indomethacin alone, current standard of care
smiles,measurement,value
"COc1ccc2c(c1)c(CC(=O)O)c(C)n2C(=O)c1ccc(Cl)cc1 [rectal indomethacin, indomethacin]",effectiveness of PEP prophylaxis,35-40%
